Columns and labels:
USP30^ch3 A162S = USP30^ch3 A162S (Homo sapiens, UniProt Q70CQ3, A162S, form not given); experiment: Thermal shift assay, USP30 ch3 A162S; assay type: binding; conditions: 20 μM inhibitor
Protocol: (§1) The thermal stability of USP30 constructs and effects of either inhibitor or Ub-PA binding were determined by thermal shift assays. Inhibitor, Ub-PA and SYPRO orange dye (Sigma, 5,000× stock in DMSO) solutions were prepared in 1× PBS, 4 mM DTT. Inhibitor/Ub-PA was prediluted to 100 µM, and SYPRO orange dye was prediluted to 50× (from the commercial stock). Mixtures of protein, inhibitor/Ub-PA and SYPRO were prepared with inhibitor/Ub-PA at a final concentration of 20 μM, SYPRO at a final concentration of 4× and protein at a final concentration of 2 μM for c1, 4 μM for ch1, ch4 and c2 and 3 μM for ch2 and ch3. Samples were added in triplicate to a white 96-well PCR plate (Bio-Rad). Fluorescence intensity was monitored (excitation, 450–490 nm; emission, 560–580 nm) at a gradient of 20–90 °C (increment of 0.3 °C, hold for 5 s before read) on a real-time PCR system (Bio-Rad).

[1] = test system: HeLa cells expressing YFP–parkin; ubiquitination of USP30 substrates (TOM20, TOM40, MFN2); experiment: Mitochondrial ubiquitination analysis (OtUBD enrichment, western blot); assay type: cell-based, human; conditions: 2 µM compound 19 h, then 10 µM CCCP 1 h
Protocol: Using a Trans-Blot Turbo system (Bio-Rad, 1.0 A, 25 V, 30 min), proteins were blotted onto a nitrocellulose membrane. Membranes were saturated by incubating in 5% (wt/vol) non-fat milk in PBS-T. Primary antibodies (anti-Flag, 1:1,000, Sigma, F3165; anti-USP30, 1:500, Sigma, HPA016952; anti-vinculin, 1:10,000, Sigma, V9131; anti-GAPDH, 1:10,000, Thermo Fisher, AM4300; anti-TOM40, 1:2,000, Proteintech, 18409-1-AP; anti-TOM20, 1:5,000, Proteintech, 11802-1-AP; anti-MFN2, 1:5,000, Proteintech, 12186-1-AP) were allowed to bind overnight. Appropriate horseradish peroxidase-coupled secondary antibodies (anti-mouse, 1:5,000, Sigma, NXA931; anti-rabbit, 1:5,000, Sigma, GENA934) were applied, and chemiluminescence was generated using Clarity Western ECL Substrate (Bio-Rad). For detection of endogenous USP30 levels, the Clarity Western ECL Substrate was supplemented with 10% Clarity Max Western ECL Substrate (Bio-Rad). Images were recorded on a ChemiDoc MP Imaging System (Bio-Rad).
HeLa cells constitutively expressing YFP–parkin were treated with 2 µM of the respective compounds or an equivalent volume of DMSO on the day after seeding. Nineteen hours after compound treatment, 10 µM carbonyl cyanide m-chlorophenyl hydrazone (CCCP, Acros Organics) or DMSO of the equivalent volume was added for 1 h before cells were washed with ice-cold PBS. Cells were then lysed in urea lysis buffer (4 M urea, 50 mM Tris-HCl, pH 8, 150 mM NaCl, 1% (vol/vol) IGEPAL, 2 mM EDTA, 5% (vol/vol) glycerol, 1× EDTA-free protease inhibitor cocktail, 1 mM PMSF, 10 µM PR619, 20 mM N-ethylmaleimide, 4 mM 1,10-phenanthroline) and collected by scraping. Cells were homogenized by sonication for 10 s (2 s on and 2 s off) at 10% amplitude and centrifuged for 10 min at 14,000g and 4 °C.
Biotinylated OtUBD (2 nmol, prepared as described elsewhere[53]) was immobilized on 35 µl of a high-capacity NeutrAvidin agarose bead slurry (Pierce, Thermo Fisher Scientific) per condition for 1 h at 4 °C with rotation. Excess reagent was washed away with ice-cold PBS. The beads were then equilibrated in urea lysis buffer. For each condition, an equal amount of 3 mg protein (as determined by the Bradford assay, in 1 ml of lysis buffer, typically obtained from one 10-cm dish) was added to the beads. These were then incubated for 2 h at 4 °C with rotation and pelleted by centrifugation at 500g for 1 min, and the supernatant was removed. Beads were then washed once with lysis buffer, once with high-salt buffer (50 mM Tris-HCl, pH 8, 1 M NaCl) and twice with PBS. Elution was carried out using 2× LDS sample buffer with 25 mM DTT and boiling for 5 min at 95 °C. After pelleting the beads at 500g for 1 min, the supernatant was transferred and analyzed by SDS–PAGE and western blotting as described above.

USP30^ch3 F453Y = USP30^ch3 F453Y (Homo sapiens, UniProt Q70CQ3, F453Y, form not given); experiment: Thermal shift assay, USP30 ch3 F453Y; assay type: binding; conditions: 20 μM inhibitor
Protocol: as §1

USP30^ch3 F157A = USP30^ch3 F157A (Homo sapiens, UniProt Q70CQ3, F157A, form not given); experiment: Thermal shift assay, USP30 ch3 F157A; assay type: binding; conditions: 20 μM inhibitor
Protocol: as §1

USP30^ch2 = USP30^ch2 (Homo sapiens, UniProt Q70CQ3); experiment: Ub–RhoG cleavage enzyme inhibition assay, chimera 2; assay type: biochemical; design: scale not given here; conditions: mean n=3
Protocol: (§2) Enzyme kinetics were performed in black, low-volume, non-binding-surface 384-well plates. […] Next, 10 µl of 2× enzyme solution was added in triplicate to the plate. The reaction was started by adding 10 µl of 2× substrate solution. […] Inhibitor solution (4×) was added to 4× enzyme solution to create a 2× enzyme–inhibitor mixture. Next, 10 µl of this 2× enzyme–inhibitor mixture was then added to the plate in triplicate, and the plate was incubated at room temperature for 90 min. The reaction was started by adding 10 µl of 2× Ub–RhoG substrate. […] Data were analyzed with GraphPad Prism.

USP30^ch3 = USP30^ch3 (Homo sapiens, UniProt Q70CQ3); experiment: Ub–RhoG cleavage enzyme inhibition assay, chimera 3 (WT); assay type: biochemical; conditions: mean n=3
Protocol: as §2

Sequence of USP30^ch3 (Q70CQ3 64-502): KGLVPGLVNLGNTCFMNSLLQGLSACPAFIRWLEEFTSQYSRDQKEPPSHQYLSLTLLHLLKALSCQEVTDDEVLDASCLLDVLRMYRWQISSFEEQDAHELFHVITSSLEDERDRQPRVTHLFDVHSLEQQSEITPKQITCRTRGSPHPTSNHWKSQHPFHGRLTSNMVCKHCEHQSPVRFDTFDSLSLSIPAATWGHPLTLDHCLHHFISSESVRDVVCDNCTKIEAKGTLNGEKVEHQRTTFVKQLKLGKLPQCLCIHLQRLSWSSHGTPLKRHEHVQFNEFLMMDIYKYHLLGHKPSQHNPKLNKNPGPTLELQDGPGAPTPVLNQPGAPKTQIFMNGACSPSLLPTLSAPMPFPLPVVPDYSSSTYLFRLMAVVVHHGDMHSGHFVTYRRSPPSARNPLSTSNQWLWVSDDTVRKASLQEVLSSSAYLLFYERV
Sequence of USP30^ch3 (P54578 248-318 partner): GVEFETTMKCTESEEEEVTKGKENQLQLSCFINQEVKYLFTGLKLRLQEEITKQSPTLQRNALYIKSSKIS
Sequence of USP30^ch3 (Q9P2H5 821-846 partner): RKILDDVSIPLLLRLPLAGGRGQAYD
Sequence of USP30^ch2 (Q70CQ3 64-502): as the sequence (Q70CQ3 64-502) above
Sequence of USP30^ch2 (P54578 248-318 partner): as the sequence (P54578 248-318 partner) above
Sequence of USP30^ch3 F453Y (Q70CQ3 64-502 F453Y, form open): as the sequence (Q70CQ3 64-502) above, with F390Y counted along it
Sequence of USP30^ch3 F453Y (P54578 248-318 partner, form open): as the sequence (P54578 248-318 partner) above
Sequence of USP30^ch3 F157A (Q70CQ3 64-502 F157A, form open): as the sequence (Q70CQ3 64-502) above, with F94A counted along it
Sequence of USP30^ch3 F157A (P54578 248-318 partner, form open): as the sequence (P54578 248-318 partner) above
Sequence of USP30^ch3 A162S (Q70CQ3 64-502 A162S, form open): as the sequence (Q70CQ3 64-502) above, with A99S counted along it
Sequence of USP30^ch3 A162S (P54578 248-318 partner, form open): as the sequence (P54578 248-318 partner) above

**Q.** Which results are given for `CC(C)(CO)NS(=O)(=O)c1ccc(NC(=O)[C@H](Cc2ccccc2)NC(=O)c2ccc(F)cc2)cc1` [NK036]?
**A.** Tm in presence of compound, USP30^ch3 A162S (USP30^ch3 A162S): 59.7 °C; polyubiquitination of TOM20 and TOM40 [1]: elevated; polyubiquitination of mitofusin 2 (MFN2) [1]: not affecting; Tm in presence of compound, USP30^ch3 F453Y (USP30^ch3 F453Y): 58.2 °C; Tm in presence of compound, USP30^ch3 F157A (USP30^ch3 F157A): 58.5 °C

**Q.** Which results are given for `CC(C)(C)NS(=O)(=O)c1ccc(NC(=O)[C@H](Cc2ccccc2)NC(=O)c2ccc(F)cc2)cc1` [compound 39]?
**A.** USP30ch2 activity (USP30^ch2; inhibitor 0.0015625 nM): 0.9681; USP30ch2 activity (USP30^ch2; inhibitor 0.00625 nM): 1.022; USP30ch2 activity (USP30^ch2; inhibitor 0.025 nM): 0.8647; USP30ch2 activity (USP30^ch2; inhibitor 0.1 nM): 0.7206; USP30ch2 activity (USP30^ch2; inhibitor 0.39 nM): 0.5237; USP30ch2 activity (USP30^ch2; inhibitor 1.56 nM): 0.3579; USP30ch2 activity (USP30^ch2; inhibitor 6.25 nM): 0.1977; USP30ch2 activity (USP30^ch2; inhibitor 25 nM): 0.0871; USP30ch2 activity (USP30^ch2; inhibitor 100 nM): 0.04077; USP30ch2 activity (USP30^ch2; inhibitor 400 nM): 0.01798; USP30ch2 activity (USP30^ch2; inhibitor 1600 nM): 0.005204; Tm in presence of compound, USP30^ch3 A162S (USP30^ch3 A162S): 60.0 °C; polyubiquitination of TOM20 and TOM40 [1]: elevated; polyubiquitination of mitofusin 2 (MFN2) [1]: not affecting; Tm in presence of compound, USP30^ch3 F453Y (USP30^ch3 F453Y): 58.5 °C; Tm in presence of compound, USP30^ch3 F157A (USP30^ch3 F157A): 58.8 °C; USP30ch3 WT activity (Fig. 5d / ED Fig. 7e series) (USP30^ch3; inhibitor 0.001563 nM): 0.9251; USP30ch3 WT activity (Fig. 5d / ED Fig. 7e series) (USP30^ch3; inhibitor 0.00625 nM): 0.867; USP30ch3 activity (USP30^ch3; inhibitor 0.00625 nM): 0.8546; USP30ch3 WT activity (Fig. 5d / ED Fig. 7e series) (USP30^ch3; inhibitor 0.025 nM): 0.8429; USP30ch3 activity (USP30^ch3; inhibitor 0.025 nM): 0.7063; USP30ch3 WT activity (Fig. 5d / ED Fig. 7e series) (USP30^ch3; inhibitor 0.1 nM): 0.705; USP30ch3 activity (USP30^ch3; inhibitor 0.1 nM): 0.6531; USP30ch3 WT activity (Fig. 5d / ED Fig. 7e series) (USP30^ch3; inhibitor 0.39 nM): 0.5733; USP30ch3 activity (USP30^ch3; inhibitor 0.39 nM): 0.4658; USP30ch3 WT activity (Fig. 5d / ED Fig. 7e series) (USP30^ch3; inhibitor 1.56 nM): 0.4495; USP30ch3 activity (USP30^ch3; inhibitor 1.56 nM): 0.3269; USP30ch3 WT activity (Fig. 5d / ED Fig. 7e series) (USP30^ch3; inhibitor 6.25 nM): 0.2804; USP30ch3 activity (USP30^ch3; inhibitor 6.25 nM): 0.1958; USP30ch3 WT activity (Fig. 5d / ED Fig. 7e series) (USP30^ch3; inhibitor 25 nM): 0.1378; USP30ch3 activity (USP30^ch3; inhibitor 25 nM): 0.09897; USP30ch3 WT activity (Fig. 5d / ED Fig. 7e series) (USP30^ch3; inhibitor 100 nM): 0.05989; USP30ch3 activity (USP30^ch3; inhibitor 100 nM): 0.03567; USP30ch3 WT activity (Fig. 5d / ED Fig. 7e series) (USP30^ch3; inhibitor 400 nM): 0.03092; USP30ch3 activity (USP30^ch3; inhibitor 400 nM): 0.008529; USP30ch3 WT activity (Fig. 5d / ED Fig. 7e series) (USP30^ch3; inhibitor 1600 nM): 0.02661; USP30ch3 activity (USP30^ch3; inhibitor 1600 nM): -0.001344; USP30ch3 activity (USP30^ch3; inhibitor 0.0015625 (0.001563) nM): 0.9081
